This note sets out measurements from ChEMBL document CHEMBL2146467, “Generation and exploration of new classes of antitubercular agents: The optimization of oxazolines, oxazoles, thiazolines, thiazoles to imidazo[1,2-a]pyridines and isomeric 5,6-fused scaffolds” (Bioorg Med Chem, 2012).

Molecules are shown by their SMILES. ≈ marks a conversion by molar mass, not a printed value.

As a reminder, the MIC90 is the lowest concentration that inhibits either 90% of growth or 90% of the strains tested, depending on the study. A high value points to weaker potency.

Holding throughout (assay type): functional
What all share (conditions): 336 h

In assay [1] the test system is Mycobacterium tuberculosis. The experiment in a line: Antimycobacterial activity against isoniazid-,rifampin-,ethambutol-,kanamycin-,ofloxacin-resistant Mycobacterium tuberculosis after 14 days.
Assay [2] deals with Mycobacterium tuberculosis. The assay is described as follows: Antimycobacterial activity against isoniazid-,rifampin-,ethambutol-,rifabutin-resistant Mycobacterium tuberculosis after 14 days.
Assay [3] deals with Mycobacterium tuberculosis. The experiment in a line: Antimycobacterial activity against isoniazid-,rifampin-,ethambutol-,streptomycin-,kanamycin-,ofloxacin-resistant Mycobacterium tuberculosis after 14 days.

As to `O=C(OCc1ccccc1)c1csc(-c2ccccc2)n1`, the results for the MIC90 in assay [1], in assay [2] and in assay [3] were 16.9 µM (≈ 4.99 µg/mL), 33.9 µM (≈ 10 µg/mL) and 16.9 µM (≈ 4.99 µg/mL), respectively.

Consider `O=[N+]([O-])c1cn2c(n1)OC[C@@H](OCc1ccc(OC(F)(F)F)cc1)C2` [PRETOMANID], for which the MIC90 in assay [1] was found to be 0.22 µM (≈ 0.079 µg/mL); in assay [2] it was 0.45 µM (≈ 0.162 µg/mL); in assay [3], 0.86 µM (≈ 0.309 µg/mL).

With `Cc1ccn2c(C(=O)OCc3ccccc3)c(C)nc2c1`, the MIC90 in assay [1] was < 0.04 µM; in assay [2], 0.57 µM (≈ 0.16 µg/mL); in assay [3] it was < 0.04 µM.

Turning to `O=C(OCc1ccccc1)c1coc(-c2ccccc2)n1`, the values for the MIC90 in assay [1] and in assay [3] were 8.9 µM (≈ 2.49 µg/mL) and 4.4 µM (≈ 1.23 µg/mL), respectively.
